# Laboratory results reported in article PMC8201735 (BMC Pharmacology & Toxicology, 2021).
# Several values for one entry are separate records, joined by “and”; a condition that tells them apart may be missing. Equal entries are not always repeated.
# What was measured:
# Assay type in all cases: in vivo, human
# subjects with T2DM [1] = assay: Ambulatory blood pressure monitoring; conditions: for Decrease in diastolic blood pressure at nighttime, Day 13, compared to placebo (metformin alone) / Decrease in systolic blood pressure at nighttime, Day 13, compared to placebo (metformin alone): stated as magnitude of decrease
# Experimental: The ambulatory blood pressure was monitored for […] during inpatient days (beginning Day 1 at 08.00, Day 2 at 08.00 and Day 13 at 08.00). The unit was programmed to take blood pressure readings every 10 min from 08.00 to 10.00, every 20 min from 10.00 to 22.00, and every 30 min from 22.00 to 08.00 the following morning.
# (§1) Descriptive statistics were used to summarize baseline demographics, safety data, and pharmacokinetic parameters. Geometric mean and % CVb (between-subject coefficient of variation) were calculated for all pharmacokinetic parameters except tmax. Comparisons of placebo with each active dose of RE were assessed in terms of change from baseline in fasting plasma lactate acid using repeated measures analysis of covariance model. The model included terms for baseline measurement, visit, treatment and visit-by-treatment interaction. The same model was applied to change from baseline in weighted means of day-time, night-time and 0–24 h of blood pressures. Within group treatment comparison was performed using mixed model on log transformed Cmax and AUC (0-last).
# subjects with T2DM [2] = assay: Surveillance for lactic acidosis: fasting plasma lactic acid concentration
# Experimental: The samples for acidosis analysis were collected at screening (following an overnight fast and prior to morning dose), once during the run-in phase, at baseline (Day- 1), mornings (prior to first dose and breakfast) of Days 1, 2, 3, and 4 (inpatient) and Days 6, 8, and 10 (outpatient) and Days 13 and 14 (inpatient). Subjects were not allowed to do rigorous exercise or physical labor during the treatment phase of the study and instructed to limit exercise 12 h before sampling.
# as §1
# Body weight = conditions: for Change from baseline in body weight, Mean (SD): Day 2
# Experimental: Body weight measurement was performed at screening and during inpatient Days- 1, 2, 4, 8, 13, and 14.
# subjects with T2DM [3] = assay: Oral glucose tolerance test (75 g): weighted mean plasma glucose and insulin; conditions: Day -1 (baseline)
# subjects with T2DM [4] = assay: as above; conditions: Day 1 (baseline)
# Experimental: Oral glucose tolerance testing was performed on Day 1 and Day 13 using a 75 g oral glucose solution. Blood samples for the measurement of insulin and glucose were taken immediately before drug dosing (within 5 min of drug dosing), and at 30 min, 1, 1.5, 2, 3, 4, and 6 h following drug dosing.
# [5] = 24 h, RE 500 mg BID + metformin, N = 14
# [6] = 24 h, RE 750 mg BID + metformin, N = 14
# [7] = Daytime (10 am to 8 pm), RE 500 mg BID + metformin
# [8] = Daytime (10 am to 8 pm), RE 750 mg BID + metformin
# [9] = Nighttime (midnight to 6 am), RE 500 mg BID + metformin
# [10] = Nighttime (midnight to 6 am), RE 750 mg BID + metformin
# [11] = Study Day 2, RE 750 mg BID + metformin
# [12] = Study Day 6, RE 750 mg BID + metformin
structure (smiles),measurement,setting,value
"CCOC(=O)OC[C@H]1O[C@@H](Oc2nn(C(C)C)c(C)c2Cc2ccc(OC(C)C)cc2)[C@H](O)[C@@H](O)[C@@H]1O [RE, remogliflozin etabonate]","Ambulatory diastolic BP, adjusted mean change from baseline to Day 13 vs. placebo",subjects with T2DM [1]; [5],−2.0; p = 0.256 mmHg
same,"Ambulatory systolic BP, adjusted mean change from baseline to Day 13 vs. placebo",subjects with T2DM [1]; [5],−2.8; p = 0.303 mmHg
same,"Ambulatory diastolic BP, adjusted mean change from baseline to Day 13 vs. placebo",subjects with T2DM [1]; [6],−3.3; p = 0.062 mmHg
same,"Ambulatory systolic BP, adjusted mean change from baseline to Day 13 vs. placebo",subjects with T2DM [1]; [6],−4.0; p = 0.131 mmHg
same,"Ambulatory diastolic BP, adjusted mean change from baseline to Day 13 vs. placebo",subjects with T2DM [1]; [7],−1.8; p = 0.461 mmHg
same,"Ambulatory systolic BP, adjusted mean change from baseline to Day 13 vs. placebo",subjects with T2DM [1]; [7],−3.4; p = 0.291 mmHg
same,"Ambulatory diastolic BP, adjusted mean change from baseline to Day 13 vs. placebo",subjects with T2DM [1]; [8],−1.3; p = 0.586 mmHg
same,"Ambulatory systolic BP, adjusted mean change from baseline to Day 13 vs. placebo",subjects with T2DM [1]; [8],−2.4; p = 0.441 mmHg
same,"Ambulatory diastolic BP, adjusted mean change from baseline to Day 13 vs. placebo",subjects with T2DM [1]; [9],−6.5; p = 0.006 mmHg
same,"Ambulatory systolic BP, adjusted mean change from baseline to Day 13 vs. placebo",subjects with T2DM [1]; [9],−8.4; p = 0.020 mmHg
same,"Ambulatory diastolic BP, adjusted mean change from baseline to Day 13 vs. placebo",subjects with T2DM [1]; [10],−4.8; p = 0.043 mmHg
same,"Ambulatory systolic BP, adjusted mean change from baseline to Day 13 vs. placebo",subjects with T2DM [1]; [10],−7.1; p = 0.047 mmHg
same,"Decrease in diastolic blood pressure at nighttime, Day 13, compared to placebo (metformin alone)",subjects with T2DM [1]; RE 500 mg BID + metformin,6.5 mmHg
same,"Decrease in systolic blood pressure at nighttime, Day 13, compared to placebo (metformin alone)",subjects with T2DM [1]; RE 500 mg BID + metformin,8.4 mmHg
same,"Decrease in diastolic blood pressure at nighttime, Day 13, compared to placebo (metformin alone)",subjects with T2DM [1]; RE 750 mg BID + metformin,4.8 mmHg
same,"Decrease in systolic blood pressure at nighttime, Day 13, compared to placebo (metformin alone)",subjects with T2DM [1]; RE 750 mg BID + metformin,7.1 mmHg
same,"Fasting plasma lactic acid, maximum on-therapy absolute values, Mean (SD)",subjects with T2DM [2]; RE 500 mg BID + metformin,1.220 (0.2684) mmol/L
same,"Fasting plasma lactic acid, maximum on-therapy change from baseline, Mean (SD)",subjects with T2DM [2]; RE 500 mg BID + metformin,0.234 (0.3717) mmol/L
same,"Fasting plasma lactic acid, maximum on-therapy absolute values, Mean (SD)",subjects with T2DM [2]; RE 750 mg BID + metformin,1.508 (0.4389) mmol/L
same,"Fasting plasma lactic acid, maximum on-therapy change from baseline, Mean (SD)",subjects with T2DM [2]; RE 750 mg BID + metformin,0.249 (0.5934) mmol/L
same,"Fasting plasma lactic acid change from baseline, Mean (SD)","subjects with T2DM [2]; Study Day 2, RE 500 mg BID + metformin",−0.07 (0.248) mmol/L
same,"Fasting plasma lactic acid change from baseline, Difference vs. placebo (95% CI), ANCOVA",subjects with T2DM [2]; [11],"−0.246(− 0.445, − 0.047) mmol/L"
same,"Fasting plasma lactic acid change from baseline, Mean (SD)",subjects with T2DM [2]; [11],−0.17 (0.419) mmol/L
same,"Fasting plasma lactic acid change from baseline, Difference vs. placebo (95% CI), ANCOVA","subjects with T2DM [2]; Study Day 6, RE 500 mg BID + metformin","−0.380 (− 0.603, − 0.157) mmol/L"
same,"Fasting plasma lactic acid change from baseline, Mean (SD)","subjects with T2DM [2]; Study Day 6, RE 500 mg BID + metformin, n = 15",−0.26 (0.310) mmol/L
same,"Fasting plasma lactic acid change from baseline, Difference vs. placebo (95% CI), ANCOVA",subjects with T2DM [2]; [12],"−0.254(− 0.472, − 0.036) mmol/L"
same,"Fasting plasma lactic acid change from baseline, Mean (SD)",subjects with T2DM [2]; [12],−0.26 (0.538) mmol/L
same,"Fasting plasma lactic acid change from baseline, Difference vs. placebo (95% CI), ANCOVA","subjects with T2DM [2]; Study Day 13, RE 500 mg BID + metformin","−0.191 (− 0.414, 0.031) mmol/L"
same,"Fasting plasma lactic acid change from baseline, Mean (SD)","subjects with T2DM [2]; Study Day 13, RE 500 mg BID + metformin, n = 15",−0.15 (0.485) mmol/L
same,"Fasting plasma lactic acid change from baseline, Difference vs. placebo (95% CI), ANCOVA","subjects with T2DM [2]; Study Day 13, RE 750 mg BID + metformin","−0.255 (− 0.475, − 0.034) mmol/L"
same,"Fasting plasma lactic acid change from baseline, Mean (SD)","subjects with T2DM [2]; Study Day 13, RE 750 mg BID + metformin, n = 16",−0.33 (0.398) mmol/L
same,Subjects with lactic acid greater than the upper limits of normal (ULN) at any time,"subjects with T2DM [2]; receiving RE, not sustained, minimally above ULN",one
same,"Change from baseline in body weight, Mean (SD)",Body weight; RE 500 mg + Metformin,−1.03 (0.994) kg
same,"Change from baseline in body weight, Mean (SD)",Body weight; RE 750 mg + Metformin,−1.04 (1.210) kg
same,Additional body weight lost in the RE groups compared to metformin alone,"Body weight; by Day 14, RE 500 or 750 mg BID + metformin vs placebo + metformin",~1 kg
same,"Weighted mean plasma insulin following OGTT, Mean (SD)",subjects with T2DM [3]; RE 500 mg + Metformin,190.96 (100.420) pmol/L
same,"Weighted mean plasma insulin following OGTT, Mean (SD)",subjects with T2DM [3]; RE 750 mg + Metformin,191.52 (83.045) pmol/L
same,"Weighted mean plasma glucose following OGTT, Mean (SD)",subjects with T2DM [4]; RE 500 mg + Metformin,13 mmol/L and 13.03 (1.929) mmol/L
same,"Weighted mean plasma glucose following OGTT, Mean (SD)",subjects with T2DM [4]; RE 750 mg + Metformin,11 mmol/L and 11.49 (3.536) mmol/L
